The values below come from patent US12441727B2, “Tricyclic compounds as inhibitors of KRAS” (Incyte Corporation, priority 2021, dated 2025).

Read-outs that look alike come from different tables or passages of the source. Where only a bound is given, the exact number is not on record here.

The nature of data set [1]: Human whole blood stability. The format is in vitro ADME. The settings on record: percent remaining at 4 hr, 1 μM, 37° C. Here is the method:
The whole blood stability of the exemplified compounds was determined by LC-MS/MS. The 96-Well Flexi-Tier™ Block (Analytical Sales & Services, Inc, Flanders, NJ) is used for the incubation plate containing 1.0 mL glass vials with 0.5 mL of blood per vial (pooled gender, human whole blood sourced from BIOIVT, Hicksville, NY or similar). Blood is pre-warmed in water bath to 37° C. for 30 minutes. 96-deep well analysis plate is prepared with the addition of 100 μL ultrapure water/well. 50 μL chilled ultrapure water/well is added to 96-deep well sample collection plate and covered with a sealing mat. 1 μL of 0.5 mM compound working solution (DMSO:water) is added to the blood in incubation plate to reach final concentrations of 1 μM, mixed by pipetting thoroughly and 50 μL is transferred 50 into the T=0 wells of the sample collection plate. Blood is allowed to sit in the water for 2 minutes and then 400 μL stop solution/well is added (acetonitrile containing an internal standard). The incubation plate is placed in the Incu-Shaker CO2 Mini incubator (Benchmark Scientific, Sayreville, NJ) at 37° C. with shaking at 150 rpm. At 1, 2 and 4-hr, the blood samples are mixed thoroughly by pipetting and 50 μL is transferred into the corresponding wells of the sample collection plate. Blood is allowed to sit in the water for 2 minutes and then 400 μL of stop solution/well is added. The collection plate is sealed and vortexed at 1700 rpm for 3 minutes (VX-2500 Multi-Tube Vortexer, VWR International, Radnor, PA), and samples are then centrifuged in the collection plate at 3500 rpm for 10 minutes (Allegra X-14R Centrifuge Beckman Coulter, Indianapolis, IN). 100 μL of supernatant/well is transferred from the sample collection plate into the corresponding wells of the analysis plate. The final plate is vortexed at 1700 rpm for 1 minute and analyze samples by LC-MS/MS. The peak area ratio of the 1, 2, and 4 hr samples relative to T=0 is used to determine the percent remaining. The natural log of the percent remaining versus time is used determine a slope to calculate the compounds half-life in blood (t1/2=0.693/slope).

For the next data set, the target named is KRAS G12C (Homo sapiens, UniProt P01116, G12C). Put plainly: GDP-GTP exchange assay (KRAS_G12C exchange assay). The settings on record: bodipy-loaded KRAS G12C 2.5 nM, SOS1 150 nM, 2 hours pre-incubation with inhibitor; read-out: G12C_exchange. It is filed as biochemical. Here is the method: The inhibitor potency of the exemplified compounds was determined in a fluorescence based guanine nucleotide exchange assay, which measures the exchange of bodipy-GDP (fluorescently labeled GDP) for GppNHp (Non-hydrolyzable GTP analog) to generate the active state of KRAS in the presence of SOS1 (guanine nucleotide exchange factor). Inhibitors were serially diluted in DMSO and a volume of 0.1 μL was transferred to the wells of a black low volume 384-well plate. 5 μL/well volume of bodipy-loaded KRAS G12C diluted to 5 nM in assay buffer (25 mM Hepes pH 7.5, 50 mM NaCl, 10 mM MgCl2 and 0.01% Brij-35) was added to the plate and pre-incubated with inhibitor for 2 hours at ambient temperature. Appropriate controls (enzyme with no inhibitor or with a G12C inhibitor (AMG-510)) were included on the plate. The exchange was initiated by the addition of a 5 μL/well volume containing 1 mM GppNHp and 300 nM SOS1 in assay buffer. The 10 μL/well reaction concentration of the bodipy-loaded KRAS G12C, GppNHp, and SOS1 were 2.5 nM, 500 uM, and 150 nM, respectively. The reaction plates were incubated at ambient temperature for 2 hours, a time estimated for complete GDP-GTP exchange in the absence of inhibitor. For the KRAS G12D and G12V mutants, similar guanine nucleotide exchange assays were used with 2.5 nM as final concentration for the bodipy loaded KRAS proteins and with 4 hours and 3 hours incubation after adding GppNHp-SOS1 mixture for G12D and G12V respectively. A cyclic peptide described to selectively bind G12D mutant (Sakamoto et al., BBRC 484.3 (2017), 605-611) or internal compounds with confirmed binding were used as positive controls in the assay plates. Fluorescence intensities were measured on a PheraStar plate reader instrument (BMG Labtech) with excitation at 485 nm and emission at 520 nm.
Either GraphPad prism or Genedata Screener SmartFit was used to analyze the data. The IC50 values were derived by fitting the data to a four parameter logistic equation producing a sigmoidal dose-response curve with a variable Hill coefficient.

For a further data set, the system named is KRAS_G12C pERK. Put plainly: Cellular pERK HTRF assay (KRAS_G12C pERK assay). The format is cell-based, human. As to conditions: KRAS G12C cells, 4 hours incubation with compound, read-out: G12C_pERK. Here is the method: MIA PaCa-2 (KRAS G12C; ATCC® CRL-1420), NCI-H358 (KRAS G12C; ATCC® CRL-5807), A427 (KRAS G12D; ATCC® HTB53), HPAFII (KRAS G12D; ATCC® CRL-1997), YAPC (KRAS G12V; DSMZ ACC382), SW480 (KRAS G12V; ATCC® CRL-228) and NCI-H838 (KRAS WT; ATCC® CRL-5844) cells are purchased from ATCC and maintained in RPMI 1640 media supplemented with 10% FBS (Gibco/Life Technologies). The cells are plated at 5000 cells per well (8 uL) into Greiner 384-well low volume, flat-bottom, and tissue culture treated white plates and incubated overnight at […], 5% CO2. The next morning, test compound stock solutions are diluted in media at 3× the final concentration and 4 uL are added to the cells, with a final concentration of 0.1% of DMSO. The cells are incubated with the test compounds for 4 hours (G12C and G12V) or 2 hrs (G12D) at 37° C., 5% CO2. Four uL of 4× lysis buffer with blocking reagent (Cisbio) are added to each well and plates are rotated gently (300 rpm) for 30 minutes at room temperature. Four uL per well of Cisbio anti Phospho-ERK 1/2 d2 is mixed with anti Phospho-ERK 1/2 Cryptate (1:1), and added to each well, incubated overnight in the dark at room temperature. Plates are read on the Pherastar plate reader at 665 nm and 620 nm wavelengths. Data are analyzed in Genedata Screener using SmartFit for IC50 values.
A general note: TR-FRET usually uses a lanthanide donor and a delayed reading to cut background.

Data set [2] has as its system KRAS_G12C pERK in MIA PaCa-2 cells. Put plainly: Whole Blood pERK1/2 HTRF assay (KRAS_G12C WB pERK assay). The format is cell-based, human. As to conditions: Homo sapiens, compound in whole blood, 4 hours, read-out: G12C_WB_pERK. Here is the method: MIA PaCa-2 cells (KRAS G12C; ATCC® CRL-1420), HPAF-II (KRAS G12D; ATCC® CRL-1997) and YAPC (KRAS G12V; DSMZ ACC382) are maintained in RPMI 1640 with 10% FBS (Gibco/Life Technologies). For MIA PaCa-2 assay, cells are seeded into 96 well tissue culture plates (Corning #3596) at 25000 cells per well in 100 uL media and cultured for 2 days at 37° C., 5% CO2 before the assay. For HPAF-II and YAPC assay, cells are seeded in 96 well tissue culture plates at 50000 cells per well in 100 uL media and cultured for 1 day before the assay. Whole Blood are added to the 1 uL dots of compounds (prepared in DMSO) in 96 well plates and mixed gently by pipetting up and down so that the concentration of the compound in blood is 1× of desired concentration, in 0.5% DMSO. The media is aspirated from the cells and 50 uL per well of whole blood with test compound is added and incubated for 4 hours for MIA PaCa and YAPC assay; or 2 hours for HPAF-II assay, respectively at 37° C., 5% CO2. After dumping the blood, the plates are gently washed twice by adding PBS to the side of the wells and dumping the PBS from the plate onto a paper towel, tapping the plate to drain well. Fifty ul/well of 1× lysis buffer #1 (Cisbio) with blocking reagent (Cisbio) and Benzonase nuclease (Sigma Cat #E1014-5KU, 1:10000 final concentration) is then added and incubated at room temperature for 30 minutes with shaking (250 rpm). Following lysis, 16 uL of lysate is transferred into 384-well Greiner small volume white plate using an Assist Plus (Integra Biosciences, NH). Four uL of 1:1 mixture of anti Phospho-ERK 1/2 d2 and anti Phospho-ERK 1/2 Cryptate (Cisbio) is added to the wells using the Assist Plus and incubated at room temperature overnight in the dark. Plates are read on the Pherastar plate reader at 665 nm and 620 nm wavelengths. Data are analyzed in Genedata Screener using SmartFit for IC50 values.

KRAS G12C, sequence (P01116 1-188 isoform P01116-2 G12C): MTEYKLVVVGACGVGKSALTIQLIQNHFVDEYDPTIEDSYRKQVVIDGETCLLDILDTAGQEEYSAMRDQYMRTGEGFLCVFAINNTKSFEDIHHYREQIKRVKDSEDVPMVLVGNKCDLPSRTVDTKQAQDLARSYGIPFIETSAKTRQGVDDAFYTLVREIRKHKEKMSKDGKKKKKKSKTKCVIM

As for `CN(C)C1(C)CN(c2nc3c(F)c(-c4ccc(F)c5cccnc45)c(C(F)(F)F)cc3c3c2nnn3[C@H]2CCN(C(=O)/C=C/CF)[C@H](CC#N)C2)C1` (single isomer, unassigned) [Example 1a], in data set [1], the “Human whole blood stability at 4 hr” value is given as “††† (WBS >90%)”. The IC50 at KRAS G12C is no more than 50 nM; in the data set with KRAS_G12C pERK (Homo sapiens, 4 h), no more than 50 nM; in data set [2] it was no more than 50 nM.
As for `COc1c(C)cccc1-c1c(C(F)(F)F)cc2c(nc(N3CC(C)(N(C)C)C3)c3nnn([C@H]4CCN(C(=O)/C=C/CF)[C@H](CC#N)C4)c32)c1F` (single isomer, unassigned) [Example 2a], in data set [1], the “Human whole blood stability at 4 hr” value is given as “†† (WBS >70% but ≤90%)”. For the same compound, the IC50 was no more than 50 nM on KRAS G12C; no more than 50 nM with KRAS_G12C pERK (Homo sapiens, 4 h); no more than 50 nM in data set [2].
In the case of `COc1c(Cl)cccc1-c1c(C(F)(F)F)cc2c(nc(N3CC(C)(N(C)C)C3)c3nnn([C@H]4CCN(C(=O)/C=C/CF)[C@H](CC#N)C4)c32)c1F` (single isomer, unassigned) [Example 3a], the “Human whole blood stability at 4 hr” value in data set [1] was “†† (WBS >70% but ≤90%)”. Also, the IC50 at KRAS G12C was no more than 50 nM; in the data set on KRAS_G12C pERK (Homo sapiens, 4 h), no more than 50 nM; in data set [2], 100 to 1000 nM.
For the compound `C[C@H](Oc1nc2c(F)c(-c3ccc(F)c4cccnc34)c(C(F)(F)F)cc2c2c1nnn2[C@H]1CCN(C(=O)/C=C/CF)[C@H](CC#N)C1)[C@@H]1CCCN1C` (single isomer, unassigned) [Example 4a], the “Human whole blood stability at 4 hr” value in data set [1] is “††† (WBS >90%)”. The IC50 was no more than 50 nM on KRAS G12C; no more than 50 nM with KRAS_G12C pERK (Homo sapiens, 4 h); no more than 50 nM in data set [2].
With `C=CC(=O)N1CCC(n2nnc3c(O[C@@H](C)[C@@H]4CCCN4C)nc4c(F)c(-c5ccc(F)c6cccnc56)c(C(F)(F)F)cc4c32)CC1` (single isomer, unassigned) [Example 5a], the “Human whole blood stability at 4 hr” value in data set [1] is listed as “†† (WBS >70% but ≤90%)”. The IC50 was no more than 50 nM at KRAS G12C; no more than 50 nM in the data set on KRAS_G12C pERK (Homo sapiens, 4 h); 50 to 100 nM in data set [2].
On to `C=CC(=O)N1CCC(n2nnc3c(O[C@@H](C)[C@@H]4CCCN4C)nc4c(F)c(-c5cccc6cccc(C#N)c56)c(C)cc4c32)CC1` (single isomer, unassigned) [Example 11b], for which, in data set [1], the “Human whole blood stability at 4 hr” value is recorded as “†† (WBS >70% but ≤90%)”. Moreover, the IC50 (on KRAS G12C; in the data set on KRAS_G12C pERK; in data set [2]) was no more than 50 nM each time.
Take `C=CC(=O)N1CC[C@H](n2nnc3c(O[C@@H](C)[C@@H]4CCCN4C)nc4c(F)c(-c5cccc6cccc(C#N)c56)c(C)cc4c32)C[C@H]1C` (single isomer, unassigned) [Example 14b]: the “Human whole blood stability at 4 hr” value in data set [1] was “††† (WBS >90%)”. For the same compound, the IC50 was no more than 50 nM at KRAS G12C; no more than 50 nM in the data set on KRAS_G12C pERK (Homo sapiens, 4 h); no more than 50 nM in data set [2].
`C=C(F)C(=O)N1CC[C@H](n2nnc3c(N4CC(N(C)CC)C4)nc4c(F)c(-c5c(C)c(C)cc6[nH]ncc56)c(C)cc4c32)C[C@H]1CC#N` (single isomer, unassigned) [Example 15a]: the “Human whole blood stability at 4 hr” value in data set [1] is “††† (WBS >90%)”. The IC50 at KRAS G12C was no more than 50 nM; in the data set on KRAS_G12C pERK (Homo sapiens, 4 h) it was no more than 50 nM; in data set [2], 50 to 100 nM.
Turning to `Cc1cc2c(nc(O[C@@H](C)[C@@H]3CCCN3C)c3nnn(C4CCN(C(=O)/C=C/CF)CC4)c32)c(F)c1-c1cccc2cccc(C#N)c12` (single isomer, unassigned) [Example 16b], the “Human whole blood stability at 4 hr” value in data set [1] is “††† (WBS >90%)”. Moreover, the IC50 at KRAS G12C is no more than 50 nM; with KRAS_G12C pERK, no more than 50 nM; in data set [2], 50 to 100 nM.
For `COC/C=C/C(=O)N1CC[C@H](n2nnc3c(N4CC(C)(N(C)C)C4)nc4c(Cl)c(-c5ccc(F)c6cccnc56)c(Cl)cc4c32)C[C@H]1CC#N` (single isomer, unassigned) [Example 18a], the “Human whole blood stability at 4 hr” value in data set [1] was “††† (WBS >90%)”. Further, the IC50 was no more than 50 nM at KRAS G12C; no more than 50 nM in the data set on KRAS_G12C pERK (Homo sapiens, 4 h); 100 to 1000 nM in data set [2].
For `COC/C=C/C(=O)N1CC[C@H](n2nnc3c(O[C@@H](C)[C@@H]4CCCN4C)nc4c(F)c(-c5c(F)cccc5OC)c(C)cc4c32)C[C@H]1CC#N` (single isomer, unassigned) [Example 34b], the “Human whole blood stability at 4 hr” value in data set [1] is “††† (WBS >90%)”. Further, the IC50 (on KRAS G12C; in data set [2]) was no more than 50 nM throughout.
